We go through eight compounds from patent publication US12662489B2 (Sitryx Therapeutics Limited, priority 2023, dated 2026).

Series [1] concerns murine KLH contact sensitization model. Particulars: cited from earlier work.
A further series relates to CD4+ T-cells. The note with it: cited from earlier work.
Series [2] concerns the target T1, MTHFD2 recombinant human enzyme (Homo sapiens, UniProt P13995).
T1 sequence (P13995 36-350): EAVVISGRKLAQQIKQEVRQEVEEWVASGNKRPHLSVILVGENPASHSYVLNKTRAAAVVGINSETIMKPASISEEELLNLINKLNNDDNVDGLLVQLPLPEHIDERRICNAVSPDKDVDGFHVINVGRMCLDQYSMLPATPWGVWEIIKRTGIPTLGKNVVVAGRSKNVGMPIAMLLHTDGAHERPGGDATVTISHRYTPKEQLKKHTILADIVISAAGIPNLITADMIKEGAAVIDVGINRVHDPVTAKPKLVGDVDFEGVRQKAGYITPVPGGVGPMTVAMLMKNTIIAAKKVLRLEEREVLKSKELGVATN
As to the kind of experiment: MTHFD2 inhibition assay (NAD(P)H-Glo luminescence). The note with it: for MTHFD1/MTHFD2 IC50 ratio: selectivity of MTHFD2 inhibition over MTHFD1, band.

Series [3] has as its target T2, human α4β2 neuronal nicotinic receptor (Homo sapiens, UniProt P17787+P43681).
T2 construct: host or cells: SH-SY5Y cells (membrane homogenates)
The series can be described thus: α4β2 neuronal nicotinic receptor assay (agonist radioligand, [3H]cytisine). It counts as binding. The note with it: transfected SH-SY5Y cell membranes, 0.6 nM [3H]cytisine, band. As to the method: Cell membrane homogenates (30 μg protein) were incubated for 120 min at 4° C. with 0.6 nM [3H]cytisine in the absence or presence of the test compound in a buffer containing 50 mM Tris-HCl (pH 7.4), 120 mM NaCl, 5 mM KCl, 2.5 mM CaCl2 and 1 mM MgCl2. Nonspecific binding was determined in the presence of 10 μM nicotine bitartrate. Following incubation, the samples were filtered rapidly under vacuum through glass fiber filters (GF/B, Packard) presoaked with 0.3% PEI and rinsed several times with ice-cold 50 mM Tris-HCl using a 96-sample cell harvester (Unifilter, Packard).
The filters were dried then counted for radioactivity in a scintillation counter (Topcount, Packard) using a scintillation cocktail (Microscint 0, Packard). The results were expressed as a percent inhibition of the control radioligand specific binding. The standard reference compound was nicotine bitartrate.
A number of example compounds of formula (I) were tested to evaluate their affinity for the human α4β2 neuronal nicotinic receptor expressed in transfected SH-SY5Y cells, determined in a radioligand binding assay.

The target in series [4] is T3, MTHFD1 recombinant human enzyme (Homo sapiens, UniProt P11586).
T3 sequence (P11586 2-291 limits assumed): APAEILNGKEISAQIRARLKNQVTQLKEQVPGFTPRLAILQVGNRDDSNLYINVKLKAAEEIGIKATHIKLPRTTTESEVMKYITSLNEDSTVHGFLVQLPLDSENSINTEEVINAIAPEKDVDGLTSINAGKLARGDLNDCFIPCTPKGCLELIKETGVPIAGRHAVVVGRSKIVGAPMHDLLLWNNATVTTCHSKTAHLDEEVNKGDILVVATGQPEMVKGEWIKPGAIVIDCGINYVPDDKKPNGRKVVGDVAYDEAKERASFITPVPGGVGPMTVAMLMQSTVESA
As to the kind of experiment: MTHFD1 inhibition assay (NAD(P)H-Glo luminescence). Particulars: MTHFD1 IC50, recombinant human enzyme 200 nM, NADP, band.

A further series deals with human CD4+ T cells. As to the kind of experiment: Human CD4+ T-cell proliferation assay (CFSE, CD3/28 beads). The note with it: read-out: Proliferation IC50.
Another series relates to murine EAE model. The note with it: cited from earlier work.

pIC50: −log10 of the molar value.

T2 sequence (P43681 29-627 limits assumed): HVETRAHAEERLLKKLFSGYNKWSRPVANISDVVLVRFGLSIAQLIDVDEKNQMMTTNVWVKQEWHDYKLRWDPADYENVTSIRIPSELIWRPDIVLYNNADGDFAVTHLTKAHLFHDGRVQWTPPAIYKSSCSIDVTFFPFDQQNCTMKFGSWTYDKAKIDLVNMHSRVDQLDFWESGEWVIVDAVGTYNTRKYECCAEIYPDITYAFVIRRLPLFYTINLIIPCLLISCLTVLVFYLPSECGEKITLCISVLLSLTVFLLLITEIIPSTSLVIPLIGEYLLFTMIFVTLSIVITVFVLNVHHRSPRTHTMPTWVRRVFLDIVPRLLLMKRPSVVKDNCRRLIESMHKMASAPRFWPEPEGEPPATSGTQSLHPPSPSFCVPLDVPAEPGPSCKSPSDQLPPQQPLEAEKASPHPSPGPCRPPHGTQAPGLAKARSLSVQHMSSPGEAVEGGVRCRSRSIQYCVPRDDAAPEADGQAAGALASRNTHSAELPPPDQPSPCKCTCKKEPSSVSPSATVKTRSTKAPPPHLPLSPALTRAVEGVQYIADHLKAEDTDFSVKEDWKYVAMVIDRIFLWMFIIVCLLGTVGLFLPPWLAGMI
T2 sequence (P17787 26-502): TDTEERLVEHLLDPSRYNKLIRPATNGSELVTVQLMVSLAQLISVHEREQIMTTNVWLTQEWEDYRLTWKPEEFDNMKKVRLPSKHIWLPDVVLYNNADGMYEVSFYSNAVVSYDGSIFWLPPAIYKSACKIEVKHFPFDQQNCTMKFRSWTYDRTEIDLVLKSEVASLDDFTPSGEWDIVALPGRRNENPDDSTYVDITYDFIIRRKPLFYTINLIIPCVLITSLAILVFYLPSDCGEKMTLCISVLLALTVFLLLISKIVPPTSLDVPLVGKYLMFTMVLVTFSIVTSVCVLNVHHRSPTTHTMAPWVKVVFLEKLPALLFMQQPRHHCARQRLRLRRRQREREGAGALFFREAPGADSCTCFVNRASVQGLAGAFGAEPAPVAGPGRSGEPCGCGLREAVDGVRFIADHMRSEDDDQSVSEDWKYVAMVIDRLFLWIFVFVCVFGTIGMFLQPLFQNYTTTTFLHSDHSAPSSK

For `Cc1c(N2CCN(C)[C@@H](C)C2)ccc2c3c(c(=O)oc12)CN(C(=O)c1ccc(NS(C)(=O)=O)c(OC(F)(F)F)c1)CC3` [DS18561882], the “tolerability at the therapeutic doses used” value in series [1] (in vivo) is “well tolerated”. Besides, the ear-swelling entry in series [1] (murine KLH contact sensitization model) is given as “could reduce ear-swelling”. Further, the “number of Th1 and Th17 cells differentiated in vitro from CD4+ T-cells and expression of the respective Th1 and Th17 cytokines” value in the series on CD4+ T-cells is “greatly decreased”. In the series on CD4+ T-cells (in vitro), the “IFNγ and IL-17” value is reported as “significantly reduced”; the “immune-suppressive Treg cells” value is listed as “increased”.

As for `COC[C@H]1CN(c2cc(C)c3c4c(c(=O)oc3c2C)CN(C(=O)c2cc(N(C)C)c(C(=O)NS(=O)(=O)C3(C)CC3)cc2F)CC4)CCN1C` [Example 145, (R)-2-(dimethylamino)-5-fluoro-4-(8-(3-(methoxymethyl)-4-methylpiperazin-1-yl)-7,10-dimethyl-5-oxo-1,3,4,5-tetrahydro-2H-chromeno[3,4-c]pyridine-3-carbonyl)-N-((1-methylcyclopropyl)sulfonyl)benzamide], the pIC50 in series [2] was 8.00 to 9.00; in series [3], under 4.00; in series [4] it was 6.00 to 7.00; in the series with human CD4+ T cells, 7.52 to 8.00. In series [2], the “MTHFD1/MTHFD2 IC50 ratio” value is given as “J (>30)”.

In the case of `CCOc1c(C(=O)NS(=O)(=O)N2CCCC2)ccc(C(=O)N2CCc3c(c(=O)oc4c(C)c(N5CCN(C)[C@@H](COC)C5)cc(C)c34)C2)c1F` [Example 147, (R)-2-ethoxy-3-fluoro-4-(8-(3-(methoxymethyl)-4-methylpiperazin-1-yl)-7,10-dimethyl-5-oxo-1,3,4,5-tetrahydro-2H-chromeno[3,4-c]pyridine-3-carbonyl)-N-(pyrrolidin-1-ylsulfonyl)benzamide], the pIC50 in series [2] is 8.00 to 9.00; in series [3], 4.00 to 4.70; in series [4], 7.00 to 8.00; in the series on human CD4+ T cells it was 8.00 to 9.00. For the same compound, the “MTHFD1/MTHFD2 IC50 ratio” value in series [2] is reported as “G (^ 3 to 9.0)”.

Take `COC[C@H]1CN(c2cc(C)c3c4c(c(=O)oc3c2C)CN(C(=O)c2cc(N(C)C)c(C(=O)NS(=O)(=O)N3CCCC3)cc2Cl)CC4)CCN1C` [Example 150, (R)-5-chloro-2-(dimethylamino)-4-(8-(3-(methoxymethyl)-4-methylpiperazin-1-yl)-7,10-dimethyl-5-oxo-1,3,4,5-tetrahydro-2H-chromeno[3,4-c]pyridine-3-carbonyl)-N-(pyrrolidin-1-ylsulfonyl)benzamide]: the pIC50 in series [2] was 7.00 to 8.00; in series [3], 4.00 to 4.70; in series [4], 5.30 to 6.00; with human CD4+ T cells, 7.52 to 8.00. Also, the “MTHFD1/MTHFD2 IC50 ratio” value in series [2] was “J (>30)”.

On to `COC[C@H]1CN(c2cc(C)c3c4c(c(=O)oc3c2C)CN(C(=O)c2ccc(C(=O)NS(=O)(=O)N3CC5CC5C3)c(OC)c2F)CC4)CCN1C` (stereo partly drawn) [Example 156, N-((3-azabicyclo[3.1.0]hexan-3-yl)sulfonyl)-3-fluoro-2-methoxy-4-(8-((R)-3-(methoxymethyl)-4-methylpiperazin-1-yl)-7,10-dimethyl-5-oxo-1,3,4,5-tetrahydro-2H-chromeno[3,4-c]pyridine-3-carbonyl)benzamide], for which the pIC50 in series [2] was 7.00 to 8.00; in series [3] it was 4.00 to 4.70; in series [4], 6.00 to 7.00; with human CD4+ T cells it was 7.00 to 7.52.

For the compound `COC[C@@H]1CN(c2cc(C)c3c4c(c(=O)oc3c2C)CN(C(=O)c2ccc(C(=O)NS(=O)(=O)N3CCCC3)c(OC3CCC3)c2F)CC4)CCN1C` [Example 174, (S)-2-cyclobutoxy-3-fluoro-4-(8-(3-(methoxymethyl)-4-methylpiperazin-1-yl)-7,10-dimethyl-5-oxo-1,3,4,5-tetrahydro-2H-chromeno[3,4-c]pyridine-3-carbonyl)-N-(pyrrolidin-1-ylsulfonyl)benzamide], the pIC50 was 7.00 to 8.00 in series [2], 4.00 to 4.70 in series [3], 6.00 to 7.00 in series [4] and 7.52 to 8.00 in the series with human CD4+ T cells. In series [2], the “MTHFD1/MTHFD2 IC50 ratio” value is “G (^ 3 to 9.0)”.

As to `COC[C@H]1CN(c2cc(C)c3c4c(c(=O)oc3c2C)CN(C(=O)c2ccc(C(=O)NS(=O)(=O)N3CCCC3)cc2F)CC4)CCN1C` [Example 175, (R)-3-fluoro-4-(8-(3-(methoxymethyl)-4-methylpiperazin-1-yl)-7,10-dimethyl-5-oxo-1,3,4,5-tetrahydro-2H-chromeno[3,4-c]pyridine-3-carbonyl)-N-(pyrrolidin-1-ylsulfonyl)benzamide], the pIC50 is 7.00 to 8.00 in series [2], 4.00 to 4.70 in series [3], 5.30 to 6.00 in series [4] and 5.30 to 6.00 with human CD4+ T cells. In series [2], the “MTHFD1/MTHFD2 IC50 ratio” value is given as “J (>30)”.

Regarding `Nc1nc2c(c(=O)[nH]1)N1C(=O)N(c3ccc(C(=O)N[C@@H](CCC(=O)O)C(=O)O)cc3)CC1CN2` (stereo partly shown) [LY345899], in the series with murine EAE model (in vivo), the “tolerability at the therapeutic doses used” value was “well tolerated”. Besides, in the series with murine EAE model (mice, oral, day 4 to day 26), the “disease severity and cumulative clinical score compared to vehicle” value is reported as “significantly reduced”; the “immune cell infiltrate into the spinal cord” value was “reduced”.
